Read-outs that look alike come from different tables or passages of the source.
How the values were obtained:
[1] = Plasma concentrations after single oral dosing in human volunteers; format: in vivo
[2] = Minimum effective analgesic plasma concentration in the rat; format: in vivo
[3] = tested on: U937 human macrophage cells; details: cited from earlier work
[4] = target: adenosine A2A receptor (Homo sapiens, UniProt P29274); test: EC50 at the adenosine A2A receptor; format: biochemical
Text: For the avoidance of doubt, the EC50 value of a compound is defined herein as the concentration of the compound that provokes a receptor response halfway between the baseline receptor response and the maximum receptor response (as determined, for example, using a dose-response curve).
The EC50 value should be determined under standard conditions (balanced salt solutions buffered to pH 7.4). For EC50 determinations using isolated membranes, cells and tissues this would be in buffered salt solution at pH 7.4 (e.g. cell culture medium), for example as in Daly et al., Pharmacol. (1993) 46, 91-100), or preferably as in Tilburg et al (J. Med. Chem. (2002) 45, 91-100). The EC50 could also be determined in vivo by measuring adenosine receptor mediated responses in a normal healthy animal, or even in a tissue perfused under normal conditions (i.e. oxygenated blood, or oxygenated isotonic media, also buffered at pH 7.4) in a normal healthy animal.

[5] = tested on: rat adjuvant model of arthritis; test: Analgesic relief in rat adjuvant model of arthritis; format: in vivo
[6] = Tachycardia by 12 lead ECGs in human volunteers; format: in vivo
Protocol: Tachycardia was determined using 12 lead ECGs.

[7] = tested on: carageenan-induced inflammation; details: rats, 20 mg/kg po; cited from earlier work
[8] = 20 mg/kg po; cited from earlier work
[9] = target: T1, rat adenosine A2a receptors (Rattus norvegicus, UniProt P30543); test: Binding at rat A2a receptors, rat striatal membranes, [3H]-CGS21680
T1 construct: from tissue; host or cells: rat striatum (membranes)
T1 sequence (P30543 whole entry): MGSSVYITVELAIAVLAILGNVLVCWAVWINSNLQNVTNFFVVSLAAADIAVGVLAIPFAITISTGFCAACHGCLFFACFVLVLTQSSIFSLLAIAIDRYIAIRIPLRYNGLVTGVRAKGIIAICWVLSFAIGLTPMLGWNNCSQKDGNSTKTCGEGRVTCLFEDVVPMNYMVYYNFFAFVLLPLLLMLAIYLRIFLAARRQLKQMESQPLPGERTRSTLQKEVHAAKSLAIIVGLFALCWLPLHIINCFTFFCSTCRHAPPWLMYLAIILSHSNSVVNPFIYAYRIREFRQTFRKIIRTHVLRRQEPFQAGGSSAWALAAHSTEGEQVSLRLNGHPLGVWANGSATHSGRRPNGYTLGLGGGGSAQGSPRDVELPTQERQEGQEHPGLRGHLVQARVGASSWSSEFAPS
Protocol: Chemical structures of compounds of the invention are given in the Examples below. Binding experiments were carried out using rat A2a receptors. Ki values were determined for each compound at pH 5.5 and pH 7.4.

[10] = pH 5.5, read-out: (Ki) nM (pH 5.5)
[11] = pH 7.4, read-out: (Ki) nM (pH 7.4)

adenosine A2A receptor, sequence (P29274 whole entry): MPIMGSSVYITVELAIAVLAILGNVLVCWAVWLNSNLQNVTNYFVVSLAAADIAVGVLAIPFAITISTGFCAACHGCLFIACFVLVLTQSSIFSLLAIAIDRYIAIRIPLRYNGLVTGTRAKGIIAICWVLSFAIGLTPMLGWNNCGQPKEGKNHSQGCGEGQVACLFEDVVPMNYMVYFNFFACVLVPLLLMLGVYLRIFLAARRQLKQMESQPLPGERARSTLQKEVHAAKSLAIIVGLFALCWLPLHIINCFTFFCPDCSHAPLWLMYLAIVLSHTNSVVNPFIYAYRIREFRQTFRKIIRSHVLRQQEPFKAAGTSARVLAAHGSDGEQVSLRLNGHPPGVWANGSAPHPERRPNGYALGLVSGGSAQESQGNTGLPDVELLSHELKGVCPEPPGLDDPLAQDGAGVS

Compound	time with plasma concentrations greater than […] ([1]; human, 0.8 mg oral)	minimum effective dose in the human ([1]; suggested from rat minimum effective plasma concentration)	minimum effective analgesic plasma concentration [2]	phorbol ester induced TNF alpha release [3]	EC50 [4]	minimum plasma concentration giving maximal analgesic relief [5]	Tachycardia side effect ([6]; single oral dose 0.2 mg)	Tachycardia side effect ([6]; single oral dose 0.8 mg)	Tachycardia side effect ([6]; single oral dose 3.5 mg)	Tachycardia side effect ([6]; single oral dose 10.5 mg)	Tachycardia side effect ([6]; single oral dose 21 mg)	Tachycardia side effect ([6]; single oral dose 28 mg)	inhibition of carageenan-induced inflammation [7]	reduction in heart rate [8]	reduction in mean blood pressure [8]	Ki [9, 10]	Ki [9, 11]
COc1nc(N)c2ncn([C@@H]3O[C@H](CO)[C@@H](O)[C@H]3O)c2n1 [spongosine, 2-methoxyadenosine]	approximately 1.5 h	approximately 0.8 mg	0.025 µM	reduce phorbol ester induced TNF alpha release	~1000 nM	0.06 µM	No	No	No	No	No	Yes	25%	25%	41%	–	–
CCCCNc1nc(N)c2ncn([C@@H]3O[C@H](CO)[C@@H](O)[C@H]3O)c2n1 [NHCH2CH2CH2CH3]	–	–	–	–	–	–	–	–	–	–	–	–	–	–	–	47 nM	17 nM
CCCNc1nc(N)c2ncn([C@@H]3O[C@H](CO)[C@@H](O)[C@H]3O)c2n1 [NHCH2CH2CH3]	–	–	–	–	–	–	–	–	–	–	–	–	–	–	–	1900 nM	1900 nM

From US7807685B2, “Therapeutic compounds” (CBT Development Limited, priority 2006, dated 2010)
